Test results published in PubChem BioAssay AID2305 (GlaxoSmithKline (GSK), 2010).

Tested on: P. falciparum 3D7 growth, pLDH absorbance
Assay: P. falciparum 3D7 growth inhibition, dose response, strain 3D7 (AID 2305)

SMILES	IC50
O=C(NCc1cccc2ccccc12)[C@@H]1CCCN1C(=O)c1ccc(O)c(-c2ccc(Cl)c(Cl)c2)c1	950 nM
CCc1cc2c(=O)c(-c3nc(C)cs3)c([C@H](N)Cc3ccc(O)cc3)oc2cc1O	900 nM
O=S(=O)(c1c(Cl)cc(Cl)cc1Cl)N1CCCCC(c2ccc(Cl)cc2)=N1	400 nM
O=C(NC1CCCCC1)C(c1cccs1)N(CCc1ccccc1)C(=O)c1ccco1 (configuration not stated)	1040 nM
COc1ccc(CCNC(=O)c2cnc3c(c2)nc(-c2cnc(-c4ccccc4)[nH]2)n3CCc2cnc[nH]2)cc1	970 nM
CC(=O)Nc1cc(C(=O)Nc2cccc(-c3cccc(-c4nc5c(C)cccc5[nH]4)c3)c2)ccc1C	330 nM
O=C(Nc1ccc(Cl)cc1Cl)NC1CCN(CCCCCNC(=O)[C@@H]2C[C@H]2c2ccc(Cl)c(Cl)c2)CC1	370 nM
O=C(NCc1ccccc1)O[C@@H]1CNCC[C@H]1c1ccc(C(O)Cc2ccccc2)cc1 (some centres not stated)	580 nM
O=C1C(c2ccccc2)=C(Nc2ccc([N+](=O)[O-])cc2)c2ccccc21	870 nM
COc1ccc2[nH]cc(C3CCN(CCCCNC(=O)c4ccc(NC(=O)c5ccc(Cl)cc5)cc4)CC3)c2c1	1020 nM
O=C(NCCCCCN1CCC(c2ccc(O)cc2)CC1)c1ccc(-c2ccccc2)cc1	930 nM
Cc1[nH]n(-c2cccc(C(F)(F)F)c2)c(=O)c1-c1ccc(Cl)cc1	860 nM
COc1ccc([C@@]23Oc4cc(OC)cc(OC)c4[C@]2(O)C2(CC3c3ccccc3)SCCCS2)cc1 (some centres not stated)	120 nM
Clc1ccc(CNc2nc(NCCc3cnc[nH]3)nc(NC3CCCCC3)n2)cc1	210 nM
O=C(NCCCCN1CCC(c2ccc3c(c2OCCOCCO)CCCC3)CC1)c1ccc(-c2ccc(C(F)(F)F)cc2)cc1	280 nM
CSc1cccc(Nc2nc3ccc(S(=O)(=O)NC(C)C(C)C)cc3n2[C@H](C)C(C)(C)C)c1 (some centres not stated)	450 nM
CC(Cc1ccc(OCc2ccccc2)cc1)NCC(O)c1cccc(Cl)c1 (configuration not stated)	550 nM
COc1cc(NC(=O)/C=C/c2cc(F)cc(F)c2F)cc(OCCN2CCC(O)(c3ccccc3)CC2)c1	170 nM
CCNc1cc(C(=O)N[C@@H](Cc2ccccc2)[C@H](O)CNC(C)CC(C)C)c(F)c(N2CCCCS2(=O)=O)c1 (some centres not stated)	1120 nM

SMILES	IC50
CC(C)CC(=O)N1CCNC[C@@H]1C(=O)NCc1ccc(Cl)c(Cl)c1	950 nM
O=C(/C=C/c1ccc(Cl)c(Cl)c1)NCCCCCN1CCC(C(=O)Nc2ccc(Cl)cc2)CC1	780 nM
COc1ccc(-c2nc(NC(=O)CS(=O)(=O)c3ccc(OC)cc3)sc2C)cc1	300 nM
CC(CN(C)C)C(=O)Nc1cccc(-c2ccc(-c3nc4ccc(F)cc4[nH]3)cc2)c1 (configuration not stated)	650 nM
Nc1oc2c(CN3CCCCCC3)c(O)ccc2c(=O)c1-c1nc2ccccc2s1	520 nM
Cc1cc2c(NC(=O)NC3CCN(Cc4ccc(Cl)c(Cl)c4)CC3)cccc2cn1	680 nM
CN(C)CCOc1cc(NC(=O)Nc2ccc3c(c2)CCCC3=O)ccc1I	940 nM
CC(Nc1ccnc2cc(Cl)ccc12)c1ccc(S(N)(=O)=O)cc1 (configuration not stated)	930 nM
CCC[C@@H]([C@@H](CC1CCCCC1)C(=O)N[C@H](C(=O)Nc1nccs1)C(C)(C)SC)N(O)C=O	150 nM
CNCCNCc1ccc(-c2ccc(-c3nc4ccc(C(F)(F)F)cc4[nH]3)s2)cc1	600 nM
COc1cc(C(=O)NCCCN2CCN(c3cccc(Cl)c3)CC2)ccc1-c1nc2cc(Cl)c(F)cc2[nH]1	1020 nM
COc1ccc2nccc(N3CCC(SCCNCc4ccc5c(n4)NC(=O)CO5)C3)c2n1 (configuration not stated)	800 nM
OC(CNCc1ccccc1OCc1ccccc1)c1cccc(Cl)c1 (configuration not stated)	220 nM
O=C(N[C@H]1CCN(Cc2ccc(OCCCN3CCCCC3)cc2)C1)c1ccc(Oc2ccccc2)cc1	780 nM
COc1ccc(NC(=O)/C=C/c2ccccc2Cl)cc1OCCN1CCC(NCc2ccccc2)CC1	350 nM
c1ccc(-c2nc(NCCCn3ccnc3)cc(-c3ccncc3)n2)cc1	170 nM
Cc1cc(=O)[nH]c(-n2nc(C)cc2NC(=O)CC(c2ccccc2)c2ccccc2)n1	1100 nM
Oc1ccc(CC2CCCN(c3nc(NCCCOc4ccccc4-c4ccccc4)nc(N4CCNCC4)n3)C2)cc1 (configuration not stated)	920 nM
